{
  "source": "paper PMC5054302",
  "about": "(Molecular and biochemical parasitology, 2011)",
  "key": {"[1]": {"tested_on": "P. falciparum TM90C2B (C2B isolates, Y268S cytochrome b)", "assay": "Radio-labeled hypoxanthine growth assay, atovaquone-resistant C2B isolates", "assay_type": "cell-based, Plasmodium falciparum"}, "HepG2 cells": {"tested_on": "HepG2 cells", "assay": "cells", "assay_type": "cell-based, human", "settings": "read-out: Hepatocyte counterscreen"}, "P. berghei liver stages": {"tested_on": "P. berghei liver stages", "assay": "microbe, parasite or virus in culture", "assay_type": "cell-based, Plasmodium berghei", "settings": "for Selectivity index: IC50 against hepatocytes divided by IC50 for P. berghei liver stage development"}, "[2]": {"tested_on": "cytochrome bc1 complex, M139L yeast cytochrome b mutant", "assay_type": "biochemical, Saccharomyces cerevisiae", "settings": "IC50 against M139L mutant enzyme divided by IC50 of wild-type enzyme"}, "[3]": {"tested_on": "cytochrome bc1 complex, L275F yeast cytochrome b mutant", "assay_type": "biochemical, Saccharomyces cerevisiae", "settings": "IC50 against L275F mutant enzyme divided by IC50 of wild-type enzyme"}, "[4]": {"target": "cytochrome bc1 complex, Y279S yeast cytochrome b mutant (Saccharomyces cerevisiae, UniProt P00163+P08067, Y279S)", "assay_type": "biochemical"}},
  "note": "Like-named read-outs stand apart in the source and are kept apart here.",
  "data": [
    {"smiles": "O=C1C(O)=C([C@H]2CC[C@H](c3ccc(Cl)cc3)CC2)C(=O)c2ccccc21", "note": "[Atovaquone, reference compound]", "values": [
      {"measurement": "IC50", "setting": "[1]", "value": "6.6 to 7.1", "unit": "µM"},
      {"measurement": "IC50", "setting": "HepG2 cells; Homo sapiens, HepG2, 48 h", "value": 38.4, "unit": "µM"},
      {"measurement": "IC50", "setting": "P. berghei liver stages; Plasmodium berghei, HepG2, 48 h, read-out: IC50 against P. berghei", "value": 19.7, "unit": "nM"}
    ]},
    {"smiles": "CC(CCCCCC(F)(F)F)CC1=C(O)C(=O)c2ccccc2C1=O", "note": "(stereo not shown) [NQ1, 2-OH-3-(2-methyl-trifluorooctyl)-naphthoquinone]", "values": [
      {"measurement": "Relative efficacy", "setting": "[2]", "value": "< 1.0"},
      {"measurement": "IC50", "setting": "HepG2 cells; MTT, HepG2 cells alone, 48 h", "value": 6.83, "unit": "µM"},
      {"measurement": "Selectivity index", "setting": "P. berghei liver stages", "value": 399},
      {"measurement": "Relative efficacy", "setting": "[3]", "value": "< 1.0"}
    ]},
    {"smiles": "CCCCCCC(C)CC1=C(O)C(=O)c2c(C)cccc2C1=O", "note": "(stereo not shown) [NQ2, 2-OH-3-(2-methyl-octyl)-8-methyl-naphthoquinone]", "values": [
      {"measurement": "Relative efficacy", "setting": "[4]; IC50 against Y279S mutant enzyme divided by IC50 of wild-type enzyme", "value": 0.37},
      {"measurement": "Extent of inhibition of Y279S enzyme activity", "setting": "[4]; at 500 nM, biphasic titration", "value": "did not reach complete inhibition"},
      {"measurement": "IC50", "setting": "HepG2 cells; MTT, HepG2 cells alone, 48 h", "value": 2.48, "unit": "µM"},
      {"measurement": "Selectivity index", "setting": "P. berghei liver stages", "value": 10.1}
    ]},
    {"smiles": "Cc1cccc2c1C(=O)C(O)=C(CC(C)CCCCCC(F)(F)F)C2=O", "note": "(stereo not shown) [NQ3, 2-OH-3-(2-methyl-trifluorooctyl)-8-methyl-naphthoquinone]", "values": [
      {"measurement": "IC50", "setting": "HepG2 cells; MTT, HepG2 cells alone, 48 h", "value": "> 54.3", "unit": "µM"}
    ]},
    {"smiles": "CCCCCCC(C)CC1=C(O)C(=O)c2ccccc2C1=O", "note": "(stereo not shown) [S-10576, reference compound]", "values": [
      {"measurement": "IC50", "setting": "HepG2 cells; MTT, HepG2 cells alone, 48 h", "value": "> 66.6", "unit": "µM"}
    ]}
  ]
}
